Data from ChEMBL document CHEMBL3137667, “[Drug-induced liver injury; fourteenth updated edition of the bibliographic database of liver injuries and related drugs]” (Gastroenterol Clin Biol, 2004).

Columns and labels:
[1] = Highest frequency of moderate liver toxicity observed during clinical trials, expressed as a percentage. [column '% BIOL' in source]; conditions: human
[2] = human
[3] = Highest frequency of acute liver toxicity observed during clinical trials, expressed as a percentage. [column '% AIGUE' in source]; conditions: human
[4] = human; remark: listed apart in the source
[5] = Proposed mechanism(s) of liver damage. [column 'MEC' in source]; conditions: human
[6] = human; remark: listed apart in the source
[7] = Times to onset, minimal and maximal, observed in the indexed observations. [column 'DELAI' in source]; conditions: human
[8] = human; remark: listed apart in the source
[9] = human, serum
[10] = human; remark: listed apart in the source
[11] = human, serum, 4383 h
[12] = human; remark: listed apart in the source
[13] = human; remark: listed apart in the source
[14] = human, serum; remark: listed apart in the source
[15] = human; remark: listed apart in the source
[16] = human; remark: listed apart in the source
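Wherever Hepatotoxicity (association with vascular disease) is given: count of indexed literature references reporting vascular liver injury in humans, e.g. peliosis hepatitis, hepatic veno-occlusive disease or Budd-Chiari syndrome.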
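Wherever Hepatotoxicity (benign tumour) is given: value is a count of indexed literature references citing a benign tumour confirmed by histopathology.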
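Wherever Hepatotoxicity (choleostasis) is given: human cholestatic liver injury, shown by histopathology or by peak ALT or AST elevation over alkaline phosphatase ratio below 2, value counts indexed literature reports.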
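Wherever Hepatotoxicity (chronic liver disease) is given: chronic liver injury confirmed by histopathology or persistently raised serum aminotransferase activity beyond 6 months, value given as the count of indexed literature references.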
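Wherever Hepatotoxicity (cirrhosis) is given: value is a count of indexed literature references reporting cirrhosis confirmed by histopathology.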
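Wherever Hepatotoxicity (cytolytic) is given: human cytolytic liver injury, shown by histopathology or by a ratio above 5 of peak ALT or AST elevation to alkaline phosphatase elevation, value counts indexed references.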
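Wherever Hepatotoxicity (granulomatous hepatitis) is given: value is a count of indexed literature references reporting granulomatous liver disease confirmed by histopathology.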
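Wherever Hepatotoxicity (malignant tumour) is given: malignant tumour confirmed by histopathology, value gives the count of indexed literature references reporting it.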
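Wherever Hepatotoxicity (severe hepatitis) is given: human clinical data: severe hepatitis, meaning potentially life-threatening liver failure or clinically observed cases, the value counts how many indexed literature references report it.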
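Wherever Hepatotoxicity (steatosis) is given: steatosis confirmed by histopathology, value is the count of indexed references.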

| Compound | Hepatotoxicity (moderate) [1] | Hepatotoxicity (cirrhosis) [2] | Hepatotoxicity (acute) [3] | Hepatotoxicity (severe hepatitis) [4] | Hepatotoxicity (mechanism) [5] | Hepatotoxicity (granulomatous hepatitis) [6] | Hepatotoxicity (time to onset) [7] | Hepatotoxicity (malignant tumour) [8] | Hepatotoxicity (moderate) [9] | Hepatotoxicity (association with vascular disease) [10] | Hepatotoxicity (chronic liver disease) [11] | Hepatotoxicity (choleostasis) [12] | Hepatotoxicity (steatosis) [13] | Hepatotoxicity (acute) [14] | Hepatotoxicity (cytolytic) [15] | Hepatotoxicity (benign tumour) [16] | also measured |
| --- | --- | --- | --- | --- | --- | --- | --- | --- | --- | --- | --- | --- | --- | --- | --- | --- | --- |
| Cc1cc(CC(=O)O)n(C)c1C(=O)c1ccc(Cl)cc1 [ZOMEPIRAC] | 1.7% | 0 | 0% | 0 | Allergic | 0 | 2 weeks | 0 | 2 | 0 | 0 | 0 | 0 | 0 | 0 | 0 | – |
| O=C1Nc2ccc(Cl)cc2[C@@](C#CC2CC2)(C(F)(F)F)O1 [EFAVIRENZ] | 18.8% | 0 | 10.9% | 4 | Allergic | 0 | 10 days - 4 weeks | 0 | 2 | 0 | 0 | 2 | 0 | 8 | 8 | 0 | – |
| Cc1ccc(O)c([C@H](CCN(C(C)C)C(C)C)c2ccccc2)c1 [TOLTERODINE] | 0% | 0 | 0% | 0 | Allergic | 0 | 18 days | 0 | 0 | 0 | 0 | 1 | 0 | 1 | 1 | 0 | – |
| Nc1ccc(S(N)(=O)=O)cc1 [SULFANILAMIDE] | 0% | 0 | 0% | 5 | Allergic | 0 | 2 weeks - 3 months | 0 | 0 | 0 | 0 | 1 | 1 | 5 | 5 | 0 | – |
| COc1cnc(NS(=O)(=O)c2ccc(N)cc2)nc1 | 0% | 0 | 0% | 0 | Allergic | 0 | 10 days | 0 | 0 | 0 | 0 | 1 | 0 | 2 | 0 | 0 | – |
| CARBOPLATIN | 27% | 0 | 6.1% | 1 | Dose-dependant | 0 | 1 week | 0 | 5 | 5 | 0 | 1 | 0 | 1 | 0 | 0 | – |
| CN(C)[C@@H]1C(O)=C(C(N)=O)C(=O)[C@@]2(O)C(O)=C3C(=O)c4c(O)cccc4[C@@](C)(O)[C@H]3[C@H](O)[C@@H]12 [OXYTETRACYCLINE] | 60% | 0 | 0% | 1 | Dose-dependant | 0 | 5 days - 3 weeks | 0 | 1 | 0 | 0 | 2 | 4 | 2 | 0 | 0 | – |
| Cc1ccnc2c1NC(=O)c1cccnc1N2C1CC1 [NEVIRAPINE] | 47.1% | 0 | 37.5% | 14 | Allergic | 0 | 8 days - 3 years | 0 | 18 | 0 | 0 | 2 | 0 | 49 | 29 | 0 | – |
| CNCCCC12CCC(c3ccccc31)c1ccccc12 [MAPROTILINE] | – | 0 | – | – | – | – | 2 days - 4 years | 0 | 5 | 0 | 0 | – | 0 | 8 | – | 0 | Hepatotoxicity (moderate) ([1]; Liver): 25%; Hepatotoxicity (acute) ([3]; Liver): 0%; Hepatotoxicity (severe hepatitis) ([4]; Liver): 0; Hepatotoxicity (mechanism) ([5]; Liver): Dose-dependant; Hepatotoxicity (granulomatous hepatitis) ([6]; Liver): 0; Hepatotoxicity (choleostasis) ([12]; Liver): 4; Hepatotoxicity (cytolytic) ([15]; Liver): 7 |
| CC1=C(C(=O)O)N2C(=O)[C@@H](NC(=O)[C@H](N)c3ccc(O)cc3)[C@H]2SC1 [CEFADROXIL] | – | 0 | – | – | Allergic | 0 | 4 days - 6 days | 0 | 1 | 0 | 0 | 2 | 0 | 2 | 1 | 0 | Hepatotoxicity (moderate) ([1]; Liver): 3.1%; Hepatotoxicity (acute) ([3]; Liver): 0%; Hepatotoxicity (severe hepatitis) ([4]; Liver): 0 |
| CC1=C(C(=O)O)N2C(=O)[C@@H](NC(=O)[C@H](N)c3ccccc3)[C@H]2SC1 [CEPHALEXIN ANHYDROUS] | 4.8% | 0 | 0% | 2 | Allergic | 1 | 1 week - 9 days | 0 | 4 | 0 | 0 | 4 | 0 | 6 | 3 | 0 | – |
| NC(=O)NC(=O)Cc1ccccc1 [PHENACEMIDE] | 0% | 0 | 3% | 8 | Allergic | 0 | 1 month - 3 months | 0 | 1 | 0 | 0 | 0 | 0 | 13 | 8 | 0 | – |
| O=c1n(CCCN2CCN(c3cccc(Cl)c3)CC2)nc2ccccn12 [TRAZODONE] | 0% | 0 | 0% | 1 | Allergic | 0 | 5 days - 18 months | 0 | 0 | 0 | 1 | 3 | 0 | 8 | 5 | 0 | – |
| O=C1c2c(O)ccc(O)c2C(=O)c2c(NCCNCCO)ccc(NCCNCCO)c21 [MITOXANTRONE] | 80% | 0 | 42.8% | 2 | Dose-dependant | 0 | 4 days - 24 days | 0 | 21 | 0 | 0 | 0 | 0 | 4 | 0 | 0 | – |
